We go through 4 compounds from article PMC7179653 (Antimicrobial Agents and Chemotherapy, 2020).

Usually half-life stands for the time needed for the level to fall by half in the phase considered. A word on the Tmax: it is the time at which the peak concentration occurs. Broadly, the clearance is the rate of elimination divided by the concentration. High values mean efficient removal, low ones inefficient removal. In general, Vd refers to the apparent volume that relates the amount in the body to the concentration in plasma or blood. The low end stands for little distribution into tissue, the high end for wide distribution into tissue.

Read-outs that look alike come from different tables or passages of the source.

Details of series [1]: method as in PMID 25813217, PMID 29914955, PMID 27527080, PMID 29437614. To be noted: healthy individuals; cited from earlier work.
The nature of another series: clinical. Particulars: human, in vivo. Here is the method: All participants in the active group received a single 2,000-mg dose of both drugs on day 3 and q8h on days 4 to 8, with a final single dose of both drugs on the morning of day 9. A washout period of approximately 24 h between treatments was provided. Study treatments were administered as 30-min (SAD study) or 90-min (MAD study) i.v. infusions, the latter to investigate the pharmacokinetics using a longer infusion time, which is commonly used to increase the time above the MIC of β-lactams ([15]). The choice of a 90-min infusion time for the MAD study was dictated by the stability and toxicology data available at the time the study was being designed. […] Safety assessments included monitoring of AEs, laboratory safety tests (hematology, serum chemistry, and urinalysis), 12-lead ECG (discrete recordings and 24-h Holter recording), and vital signs (blood pressure, pulse rate, and body temperature). In the SAD study, safety assessments were performed predose at screening, at day 1, postdose periodically on days 1, 2, and 7 (follow-up), and at early withdrawal, if relevant. […] In the MAD study, safety assessments were done predose at screening, at day 2, postdose periodically on days 1, 2, 4, 7, and 8, on days 13 to 15 (follow-up), and at early withdrawal, if relevant. […] On all other days, a single predose sample was collected for pharmacokinetic evaluation prior to the morning infusion. Blood was collected into lithium-heparin tubes and stored at a nominal –80°C temperature until analysis.

For the compound `NC(=O)[C@@H]1CC[C@@H]2CN1C(=O)N2OS(=O)(=O)O` [avibactam], the half-life entry in series [1] is recorded as “approximately 2 h”.

On to `C[C@@H](O)[C@H]1C(=O)N2C(C(=O)O)=C(S[C@@H]3CN[C@H](C(=O)N(C)C)C3)[C@H](C)[C@H]12` [meropenem], for which the Tmax in “clinical” is 1 h. The compound also showed a clearance in “clinical” (CL) of 253 mL/min. In “clinical” (CLr), the CL renal is 161 mL/min. The same compound registered a Vd in “clinical” (Vdss) of 19.8 L. The half-life in “clinical” (t1/2) was 1.3 h.

On to `O=C(NC1CCNCC1)[C@@H]1CC[C@@H]2CN1C(=O)N2OS(=O)(=O)O` [relebactam], for which the half-life result in series [1] is reported as “approximately 2 h”.

`O=C(O)C[C@@H]1CC[C@H](NC(=O)Cc2cccs2)B(O)O1` [vaborbactam]: the half-life result in series [1] is on record as “approximately 2 h”.
